Experiment [1] concerns the target T1, HDAC8 (Homo sapiens, UniProt Q9BY41).
T1 sequence (Q9BY41 1-377): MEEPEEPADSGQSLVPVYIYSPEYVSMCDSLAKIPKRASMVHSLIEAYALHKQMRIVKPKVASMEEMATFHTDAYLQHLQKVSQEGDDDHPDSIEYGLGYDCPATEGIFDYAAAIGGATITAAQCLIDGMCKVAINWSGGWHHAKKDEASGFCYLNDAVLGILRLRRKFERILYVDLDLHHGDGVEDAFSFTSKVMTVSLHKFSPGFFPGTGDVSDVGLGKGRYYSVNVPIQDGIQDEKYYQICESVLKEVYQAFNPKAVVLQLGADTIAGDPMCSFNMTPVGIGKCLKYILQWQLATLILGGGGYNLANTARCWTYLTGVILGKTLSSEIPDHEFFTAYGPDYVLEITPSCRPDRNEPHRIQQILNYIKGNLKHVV
Set-up: endogenous in cells; host or cells: A549; method as in PMID 36516047. Conditions: A549 cells; cited from earlier work.

The test system of experiment [2] is Jurkat cells. Put plainly: Cell viability MTS assay, Jurkat. Type of experiment: cell-based. Particulars: for IC50: Homo sapiens, Jurkat, 72 h, MTS assay, read-out: IC50 antiproliferative, Jurkat. On the procedure:
(§1) MTS assay was used to measure the cell viability. For single treatment, Jurkat, THP-1 and HEL (8000 cells/well), HCT116 and A549 (2000 cells/well) were seeded in 96-well plates in 100 μL complete medium. After overnight incubation, 50 μL of media containing various concentrations of compounds or the vehicle were added to each well. For cotreatment, cells were seeded in 96-well plates in 50 μL complete medium. After overnight incubation, 50 μL of Z-VAD-FMK, Nec-1, Fer-1, CQ, and other indicated compounds were added to each well. One hour later, 50 μL of media containing various concentrations of compounds were added to each well. After 72 h of treatment, 20 μL of CellTiter 96 AQueous One Solution reagent (Promega, Madison, USA) was added to each well according to manufacturer’s protocol. Plates were incubated at 37 °C for 1–2 h. The absorbance was determined at a wavelength of 490 nm using a Synergy H1 plate reader (Biotek, Winooski, VT, USA).

Experiment [3] concerns THP-1 cells. Kind of experiment: Cell viability MTS assay, THP-1. Particulars: Homo sapiens, 72 h, read-out: IC50 antiproliferative, THP-1. In kind it is cell-based. On the procedure:
as §1
Background: Formazan colour is commonly taken as a measure of viable cells.

The test system of experiment [4] is HCT116 cells. Kind of experiment: Cell viability MTS assay, HCT116. In kind it is cell-based. Particulars: Homo sapiens, HCT-116, 72 h, read-out: IC50 antiproliferative, HCT116. Here is the method:
as §1

Experiment [5] has as its system A549 cells. Put plainly: Cell viability MTS assay, A549. In kind it is cell-based. Particulars: Homo sapiens, 72 h, read-out: IC50 antiproliferative, A549. Here is the method: as §1
For experiment [6], the target named is T1, HDAC8. Put plainly: In vitro HDAC8 deacetylase inhibition assay.
Procedure: (§2) After a following incubation at 37 °C for 20 min, the fluorescence was measured on a Synergy H1 Platereader (BioTek, USA) with an excitation wavelength of 370 nm and an emission wavelength of 460 nm. Nonlinear regression was used for the determination of the IC50 of each compound.
Experiment [7] has as its target T1, HDAC8. Put plainly: HDAC8 degradation in Jurkat cells, Western blot. Particulars: Jurkat cells, 6 h. For orientation: Immunoblotting shows a protein as a band on a membrane.
Experiment [8] addresses T2, HDAC6 (Homo sapiens, UniProt Q9UBN7).
T2 sequence (Q9UBN7 1-1215): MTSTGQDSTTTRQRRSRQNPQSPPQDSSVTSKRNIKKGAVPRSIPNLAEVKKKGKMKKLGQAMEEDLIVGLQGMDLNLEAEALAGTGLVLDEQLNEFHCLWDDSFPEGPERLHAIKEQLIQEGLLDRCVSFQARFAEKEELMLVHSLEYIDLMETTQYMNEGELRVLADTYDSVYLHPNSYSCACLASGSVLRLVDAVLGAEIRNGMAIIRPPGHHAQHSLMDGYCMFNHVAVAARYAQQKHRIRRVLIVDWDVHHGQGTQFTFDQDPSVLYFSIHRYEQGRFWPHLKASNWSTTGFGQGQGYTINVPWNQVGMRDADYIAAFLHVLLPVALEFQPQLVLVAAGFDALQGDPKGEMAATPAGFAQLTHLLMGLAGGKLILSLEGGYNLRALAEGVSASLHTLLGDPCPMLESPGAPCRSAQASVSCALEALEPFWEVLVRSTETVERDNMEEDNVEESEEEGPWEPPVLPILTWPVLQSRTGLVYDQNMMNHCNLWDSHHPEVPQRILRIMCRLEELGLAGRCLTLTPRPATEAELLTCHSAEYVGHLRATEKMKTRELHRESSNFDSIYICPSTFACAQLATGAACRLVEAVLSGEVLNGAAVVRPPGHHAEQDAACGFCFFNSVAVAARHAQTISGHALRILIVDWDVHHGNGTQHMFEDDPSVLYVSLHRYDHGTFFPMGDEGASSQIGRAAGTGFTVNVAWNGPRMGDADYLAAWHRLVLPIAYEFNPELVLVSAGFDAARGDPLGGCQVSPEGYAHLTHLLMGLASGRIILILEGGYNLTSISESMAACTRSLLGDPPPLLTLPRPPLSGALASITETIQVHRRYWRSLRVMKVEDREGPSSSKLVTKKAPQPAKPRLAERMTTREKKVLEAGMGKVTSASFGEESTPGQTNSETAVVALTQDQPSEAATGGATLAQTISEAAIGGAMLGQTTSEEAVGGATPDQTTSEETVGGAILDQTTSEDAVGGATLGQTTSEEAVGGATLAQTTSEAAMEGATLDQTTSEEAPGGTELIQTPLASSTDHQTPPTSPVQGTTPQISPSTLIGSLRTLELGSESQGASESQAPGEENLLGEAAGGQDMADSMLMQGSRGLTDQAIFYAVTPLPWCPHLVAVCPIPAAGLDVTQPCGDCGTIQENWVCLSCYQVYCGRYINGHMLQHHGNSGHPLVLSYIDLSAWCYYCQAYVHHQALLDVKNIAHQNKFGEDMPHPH
Also on record: endogenous in cells. Conditions: MDA-MB-231 cells; cited from earlier work.

For experiment [9], the target named is T2, HDAC6. Also on record: endogenous in cells; host or cells: Jurkat. Particulars: Jurkat cells; cited from earlier work.
In experiment [10] the target is T1, HDAC8. Also on record: endogenous in cells; host or cells: HCT116; method as in PMID 35759908. Particulars: HCT116 cells; cited from earlier work.
The test system of experiment [11] is acetyl-SMC3 (Ac-SMC3). Put plainly: Ac-SMC3 level in Jurkat cells, Western blot. Conditions: 1 μM, 6 h. Type of experiment: cell-based.
The target of experiment [12] is HDAC1 (Homo sapiens, UniProt Q13547). Kind of experiment: In vitro HDAC1 deacetylase inhibition assay. Conditions: read-out: HDAC1 IC50; recombinant enzyme, Boc-Lys(Ac)-AMC.
Chain of HDAC1 (Q13547 whole entry): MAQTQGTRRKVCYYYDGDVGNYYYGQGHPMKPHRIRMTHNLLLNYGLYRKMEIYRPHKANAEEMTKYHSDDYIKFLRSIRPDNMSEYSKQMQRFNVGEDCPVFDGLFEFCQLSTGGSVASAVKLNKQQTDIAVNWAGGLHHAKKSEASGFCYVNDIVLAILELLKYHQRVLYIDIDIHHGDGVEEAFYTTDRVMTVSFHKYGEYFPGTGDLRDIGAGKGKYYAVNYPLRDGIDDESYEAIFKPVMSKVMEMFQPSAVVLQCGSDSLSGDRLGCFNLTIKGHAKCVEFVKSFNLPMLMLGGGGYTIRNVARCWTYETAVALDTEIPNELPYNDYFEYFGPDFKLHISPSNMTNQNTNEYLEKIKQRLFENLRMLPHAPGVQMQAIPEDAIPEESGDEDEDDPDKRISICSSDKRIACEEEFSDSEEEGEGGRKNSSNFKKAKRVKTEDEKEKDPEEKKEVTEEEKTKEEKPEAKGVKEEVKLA
Procedure: as §2
Experiment [13] deals with HDAC2 (Homo sapiens, UniProt Q92769). Put plainly: In vitro HDAC2 deacetylase inhibition assay. Conditions: read-out: HDAC2 IC50; recombinant enzyme, Boc-Lys(Ac)-AMC.
Chain of HDAC2 (Q92769 whole entry): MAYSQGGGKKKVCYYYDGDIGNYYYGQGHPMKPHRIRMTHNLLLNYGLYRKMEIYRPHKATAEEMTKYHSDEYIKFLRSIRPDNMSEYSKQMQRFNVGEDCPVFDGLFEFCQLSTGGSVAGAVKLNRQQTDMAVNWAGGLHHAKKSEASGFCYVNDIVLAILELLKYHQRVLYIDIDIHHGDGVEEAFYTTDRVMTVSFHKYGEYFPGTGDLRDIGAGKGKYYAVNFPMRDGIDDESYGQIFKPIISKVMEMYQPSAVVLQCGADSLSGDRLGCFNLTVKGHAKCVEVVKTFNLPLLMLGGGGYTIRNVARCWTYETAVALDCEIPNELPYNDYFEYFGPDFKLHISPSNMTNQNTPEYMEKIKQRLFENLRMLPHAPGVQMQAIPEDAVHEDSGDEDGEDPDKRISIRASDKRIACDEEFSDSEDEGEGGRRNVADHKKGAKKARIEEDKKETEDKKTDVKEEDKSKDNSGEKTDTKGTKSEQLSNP
Procedure: as §2
The target in experiment [14] is HDAC3/NcoR2 (Homo sapiens, UniProt O15379). Put plainly: In vitro HDAC3 deacetylase inhibition assay. Conditions: read-out: HDAC3 IC50; recombinant enzyme, Boc-Lys(Ac)-AMC.
Chain of HDAC3/NcoR2 (O15379 whole entry): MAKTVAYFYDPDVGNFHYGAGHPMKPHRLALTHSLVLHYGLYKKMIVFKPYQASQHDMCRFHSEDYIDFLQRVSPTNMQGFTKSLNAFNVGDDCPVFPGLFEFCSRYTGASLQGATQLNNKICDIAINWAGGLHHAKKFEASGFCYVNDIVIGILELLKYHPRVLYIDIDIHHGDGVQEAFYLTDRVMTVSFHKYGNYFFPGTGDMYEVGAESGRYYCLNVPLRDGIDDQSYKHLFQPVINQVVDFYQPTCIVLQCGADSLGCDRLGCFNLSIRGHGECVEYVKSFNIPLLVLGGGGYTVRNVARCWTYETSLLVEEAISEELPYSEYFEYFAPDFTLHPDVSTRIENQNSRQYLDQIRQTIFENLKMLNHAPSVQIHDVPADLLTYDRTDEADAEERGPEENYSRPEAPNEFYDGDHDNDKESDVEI
Chain of HDAC3/NcoR2 (Q9Y618 395-489 partner limits assumed): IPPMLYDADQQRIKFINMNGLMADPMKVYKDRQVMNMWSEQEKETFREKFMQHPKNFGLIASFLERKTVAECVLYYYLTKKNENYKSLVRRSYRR
Procedure: as §2

Read-outs that look alike come from different tables or passages of the source.

Take `O=C1CCC(N2C(=O)c3cccc(NCc4cn(CCOCCOc5ccc(Cn6ccc7ccc(C(=O)NO)cc76)cc5)nn4)c3C2=O)C(=O)N1` (centres unmarked) [PROTAC 5]: the DC50 in experiment [1] was 0.58 µM.

For orientation: IC50 means the concentration that inhibits the measured activity by half. With `CCCCCCNNC(=O)c1ccc(CNC(=O)CN2CCC(c3ccc(NC(C)=O)cc3)CC2)cc1` [Compound 32, 2-(4-(4-Acetamidophenyl)piperidin-1-yl)-N-(4-(2-hexylhydrazine-1-carbonyl)benzyl)acetamide], the IC50 is 3 ± 0.3 µM in experiment [2]; 3.4 ± 0.6 µM in experiment [3]; 2.8 ± 0.3 µM in experiment [4]; 12 ± 1.6 µM in [5]; 16.6 ± 2.8 µM in experiment [6]. In addition, in experiment [7], the “HDAC8 degradation by control compounds (in words)” value is recorded as “Neither NC-Z16 nor 32 induced HDAC8 degradation”.

`COc1ccc(C(=O)NO)cc1OCc1ccc(C(=O)NCCCCCCCCNc2cccc3c2C(=O)N(C2CCC(=O)NC2=O)C3=O)cc1` (centres unmarked) [PROTAC 4]: the IC50 in [2] was found to be 4 ± 0.8 µM; in [3], 10.8 ± 0.9 µM; in experiment [4], 8 ± 0.5 µM; in experiment [5] it was 15.2 ± 3.3 µM. Besides, the DC50 in [8] was 0.038 µM; in experiment [9], 0.0785 µM.

Turning to `Nc1cccc2c1C(=O)N(C1CCC(=O)NC1=O)C2=O` (centres unmarked) [Poma, pomalidomide], the IC50 in experiment [2], in [3], in [4] and in [5] was over 33.3 µM in each case.

Take `O=C(CCCCOc1cccc(CCNC(=O)c2cccc(C(=O)NO)c2)c1)NCCCCCCNc1cccc2c1C(=O)N(C1CCC(=O)NC1=O)C2=O` (centres unmarked) [PROTAC 2]: in experiment [10], the DC50 was 0.147 µM.

Turning to `CCCCCCNNC(=O)c1ccc(CNC(C)=O)cc1` [Compound 6, N-(4-(2-Hexylhydrazine-1-carbonyl)benzyl)acetamide], the concentration for half-maximal inhibition (IC50) is over 33.3 µM in [2]; over 33.3 µM in experiment [3]; over 33.3 µM in experiment [4]; over 33.3 µM in experiment [5]; 0.94 ± 0.05 µM in experiment [12]; 8 ± 1 µM in experiment [13]. Moreover, the IC50 in experiment [14] came out at 9.5 ± 0.7 µM; in [6] (read-out: HDAC8 IC50, recombinant enzyme, Boc-Lys(TFA)-AMC), 0.6 ± 0.08 µM. Also, the “level of Ac-SMC3 at 1 μM (in words)” value in [11] was “neither 1 μM of pan-HDAC inhibitor SAHA nor 1 μM of HDAC8 inhibitor 6 increased the level of Ac-SMC3”.

As to `COc1ccc(Cn2ccc3ccc(C(=O)NO)cc32)cc1` [PCI-34051], the IC50 in [2] was 4.5 ± 0.7 µM; in experiment [3] it was over 33.3 µM; in experiment [4], 21.9 ± 2.8 µM; in experiment [5], over 33.3 µM. Besides, in [2] (Jurkat pretreated with 50 nM Z16 for 2 h, then 72 h, MTS), the “decreased antiproliferative potency after Z16 pretreatment compared to single treatment” value is reported as “about 5 fold”.

Values taken from PMC11345830, “Exploration of Hydrazide-Based HDAC8 PROTACs for the Treatment of Hematological Malignancies and Solid Tumors” (Journal of Medicinal Chemistry, 2024).
